# Assay results reported in article PMC4166484 (European journal of medicinal chemistry, 2011).
# Like-named read-outs stand apart in the source and are kept apart here.
# Legend:
# [1] = Pharmacokinetic study, intraperitoneal; type: in vivo, Sprague-Dawley rats; conditions: male, Sprague-Dawley, rat, plasma, ip, 20 mg/kg
# [2] = system: 60 human tumor cell lines; experiment: NCI DTP screen against 60 human tumor cell lines; type: cell-based; conditions: read-out: IC50s, growth of a broad range of cancer cell lines
# [3] = system: SKBR-3 cells; experiment: Cell cycle distribution by FACS; type: cell-based; conditions: SKBR-3, 0.5 μM and 5 μM, after 12h
# [4] = system: A498; type: cell-based; conditions: Homo sapiens, A498, 48 h
# [5] = system: SKBR-3 breast cancer cell; experiment: MTT cell viability, SKBR-3 breast cancer cell growth; type: cell-based
compound,measurement,setting,value
"Cc1ccc(C)c(COc2cc(NC(=O)c3ccc4c(c3)OCO4)ccc2N(C)S(C)(=O)=O)c1 [Compound 10, Benzo[1,3]dioxole-5-carboxylic acid [3-(2,5-dimethyl-benzyloxy)-4-(methanesulfonyl-methyl-amino)-phenyl]-amide]",AUC(0-t),"[1]; Rat 2, 20mg/kg i.p.",22600 ng·h/mL
same,AUC(0-t),"[1]; Rat 3, 20mg/kg i.p.",9720 ng·h/mL
same,MRT last,"[1]; MRT(0-t), Rat 3, 20mg/kg i.p.",5.62 h
same,half-life,"[1]; T1/2, Rat 1, 20mg/kg i.p.",2.44 h
same,half-life,"[1]; T1/2, Rat 2, 20mg/kg i.p.",3.71 h
same,half-life,"[1]; T1/2, Rat 3, 20mg/kg i.p.",3.21 h
same,IC50,[2],200 to 500 nM
same,cell cycle effect,[3],accumulated at G2/M and subG1 phase
same,GI50,[4],122 nM
"COc1ccc(CC(=O)Nc2ccc(N(C)S(C)(=O)=O)c(OCc3cc(C)ccc3C)c2)cc1OC [Compound 17, N-[3-(2,5-Dimethyl-benzyloxy)-4-(methanesulfonyl-methyl-amino)-phenyl]-(3,4-dimethoxyphenyl)-acetamide]",IC50,"[5]; Homo sapiens, SK-BR-3, 48 h, read-out: IC50 against SKBR-3 breast cancer cell growth, 48h treatment, MTT assay, six replicates",> 30000 nM
"Cc1ccc(C)c(COc2cc(NC(=O)Cc3ccccc3)ccc2N(C)S(C)(=O)=O)c1 [Compound 24, N-[3-(2,5-Dimethyl-benzyloxy)-4-(methanesulfonyl-methyl-amino)-phenyl]-2-phenyl-acetamide]",IC50,"[5]; read-out: IC50 against SKBR-3 breast cancer cell growth, 48h treatment, MTT assay, six replicates",> 30000 nM
